Reference: US9227971B2, “Pyrazolo[1,5-a]pyrimidine compounds as mTOR inhibitors” (Merck Sharp & Dohme Corp., priority 2010, dated 2016)
Read-outs that look alike come from different tables or passages of the source.

Assays:
[1] = tested on: phosphorylated 4E-BP1 Thr37/46 (p4E-BP1 Thr37/46), mTORC1 activity, PC3 cells; assay: mTOR target engagement assay, immunofluorescent cell-based, p4E-BP1 Thr37/46 readout (mTORC1 activity); settings: read-out: p4E-BP1 Thr37/46 IC50
How it was run: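 Read-out is fluorescence intensity of immunostained p4E-BP1 Thr37/46 in fixed PC3 cells, fitted to a logistic curve for IC50 with DMSO-only wells as top. Cells had been exposed to serial compound dilutions for ninety minutes at 37° C in 5% FBS medium with 0.25% DMSO.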

[2] = tested on: phosphorylated AKT Ser473 (pAKT S473), mTORC2 activity, PC3 cells; assay: mTOR target engagement assay, immunofluorescent cell-based, pAKT S473 readout (mTORC2 activity)
How it was run: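 After blocking, cells were stained overnight at 4 °C with anti-pAKT S473 antibody, then a fluorescent secondary; inhibition was read as reduced fluorescence intensity.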

[3] = Homo sapiens, PC-3, PC3 cells, compound treatment ninety minutes at 37° C.
[4] = Homo sapiens, PC-3, Table 3-1, PC3 cells
[5] = Homo sapiens, PC-3, Table 7-8, PC3 cells

CC(=O)c1c([C@@H]2C[C@H]3CC[C@@H](C2)N3C(=O)c2nnc[nH]2)nc2c(-c3ccc(C(N)(C(F)(F)F)C(F)(F)F)nc3)cnn2c1N [Compound 7.80, 1-(5-((1R,3s,5S)-8-(4H-1,2,4-triazole-3-carbonyl)-8-azabicyclo[3.2.1]octan-3-yl)-7-amino-3-(6-(2-amino-1,1,1,3,3,3-hexafluoropropan-2-yl)pyridin-3-yl)pyrazolo[1,5-a]pyrimidin-6-yl)ethanone]
IC50 ([1]; Homo sapiens, PC-3, PC3 cells): 100 to 1000 nM | IC50 ([2]; Homo sapiens, PC-3, PC3 cells): 1000 to 10000 nM

CC(=O)c1c([C@@H]2C[C@H]3CC[C@@H](C2)N3C(=O)c2nnc[nH]2)nc2c(-c3ccc(-n4ccnc4)nc3)cnn2c1N [Compound 1.1.129, 1-(3-(6-(1H-imidazol-1-yl)pyridin-3-yl)-5-((1R,3s,5S)-8-(4H-1,2,4-triazole-3-carbonyl)-8-azabicyclo[3.2.1]octan-3-yl)-7-aminopyrazolo[1,5-a]pyrimidin-6-yl)ethanone]
IC50 [1, 3]: > 10000 nM | IC50 [2, 3]: > 10000 nM

CS(=O)(=O)c1c([C@@H]2C[C@H]3CC[C@@H](C2)N3C(=O)c2nnc[nH]2)nc2c(-c3ccc(-c4ccc(OC(F)F)cc4)nc3)cnn2c1N [Compound 3.55, ((1R,3s,5S)-3-(7-amino-3-(6-(4-(difluoromethoxy)phenyl)pyridin-3-yl)-6-(methylsulfonyl)pyrazolo[1,5-a]pyrimidin-5-yl)-8-azabicyclo[3.2.1]octan-8-yl)(4H-1,2,4-triazol-3-yl)methanone]
IC50 [1, 4]: 1 to 100 nM | IC50 [2, 4]: 1 to 100 nM

CS(=O)(=O)c1c([C@@H]2C[C@H]3CC[C@@H](C2)N3C(=O)c2cc(N)n[nH]2)nc2c(-c3ccc(-c4ccccc4F)nc3)cnn2c1N [Compound 3.134]
IC50 ([1]; Table 3-1, PC3 cells): 1 to 100 nM | IC50 ([2]; Table 3-1, PC3 cells): 1 to 100 nM

CC(=O)c1c([C@@H]2C[C@H]3CC[C@@H](C2)N3C(=O)c2nnc[nH]2)nc2c(-c3ccc(-c4cn(C)cn4)nc3)cnn2c1N [Compound 1.1.108, 1-(5-((1R,3s,5S)-8-(4H-1,2,4-triazole-3-carbonyl)-8-azabicyclo[3.2.1]octan-3-yl)-7-amino-3-(6-(1-methyl-1H-imidazol-4-yl)pyridin-3-yl)pyrazolo[1,5-a]pyrimidin-6-yl)ethanone]
IC50 [1, 3]: 1000 to 10000 nM | IC50 [2, 3]: 1000 to 10000 nM

CC(=O)c1c(C2CC3COCC(C2)N3C(=O)c2nc[nH]n2)nc2c(-c3cnn(-c4ccccc4)c3)cnn2c1N (stereo not shown) [Compound 8.26, 1-(5-(9-(1H-1,2,4-triazole-3-carbonyl)-3-oxa-9-azabicyclo[3.3.1]nonan-7-yl)-7-amino-3-(1-phenyl-1H-pyrazol-4-yl)pyrazolo[1,5-a]pyrimidin-6-yl)ethanone]
IC50 ([1]; Homo sapiens, PC-3, PC3 cells): 100 to 1000 nM | IC50 ([2]; Homo sapiens, PC-3, PC3 cells): 1 to 100 nM

CC(=O)c1c([C@@H]2C[C@H]3CC[C@@H](C2)N3C(=O)CO)nc2c(-c3ccc(-n4ccc(C)n4)nc3)cnn2c1N [Compound 1.1.133, 1-((1R,3s,5S)-3-(6-acetyl-7-amino-3-(6-(3-methyl-1H-pyrazol-1-yl)pyridin-3-yl)pyrazolo[1,5-a]pyrimidin-5-yl)-8-azabicyclo[3.2.1]octan-8-yl)-2-hydroxyethanone]
IC50 [1, 3]: 1000 to 10000 nM | IC50 [2, 3]: 100 to 1000 nM

CC(=O)c1c([C@@H]2C[C@H]3CC[C@@H](C2)N3C(=O)c2cc[nH]c2)nc2c(-c3ccc(C(C)(C)O)nc3)cnn2c1N [Compound 7.16, 1-(5-((1R,3s,5S)-8-(1H-pyrrole-3-carbonyl)-8-azabicyclo[3.2.1]octan-3-yl)-7-amino-3-(6-(2-hydroxypropan-2-yl)pyridin-3-yl)pyrazolo[1,5-a]pyrimidin-6-yl)ethanone]
IC50 [1, 3]: 100 to 1000 nM | IC50 [2, 3]: 1 to 100 nM

CS(=O)(=O)c1c([C@@H]2C[C@H]3CC[C@@H](C2)N3C(=O)c2nnc[nH]2)nc2c(-c3ccc(C4(O)CCCC4)nc3)cnn2c1N [Compound 7.46, ((1R,3s,5S)-3-(7-amino-3-(6-(1-hydroxycyclopentyl)pyridin-3-yl)-6-(methylsulfonyl)pyrazolo [1,5-a]pyrimidin-5-yl)-8-azabicyclo[3.2.1]octan-8-yl)(4H-1,2,4-triazol-3-yl)methanone]
IC50 [1, 5]: 1 to 100 nM | IC50 [2, 5]: 1 to 100 nM

CS(=O)(=O)c1c([C@@H]2C[C@H]3CC[C@@H](C2)N3C(=O)c2nnc[nH]2)nc2c(-c3ccc(-c4ccc(F)c(F)c4)nc3)cnn2c1N [Compound 3.44, ((1R,3s,5S)-3-(7-amino-3-(6-(3,4-difluorophenyl)pyridin-3-yl)-6-(methylsulfonyl)pyrazolo[1,5-a]pyrimidin-5-yl)-8-azabicyclo[3.2.1]octan-8-yl)(4H-1,2,4-triazol-3-yl)methanone]
IC50 [1, 4]: 1 to 100 nM | IC50 [2, 4]: 1 to 100 nM

CC(=O)c1c([C@@H]2C[C@H]3CC[C@@H](C2)N3C(=O)CO)nc2c(-c3ccc(C(N)(C(F)(F)F)C(F)(F)F)nc3)cnn2c1N [Compound 7.81, 1-((1R,3s,5S)-3-(6-acetyl-7-amino-3-(6-(2-amino-1,1,1,3,3,3-hexafluoropropan-2-yl)pyridin-3-yl)pyrazolo[1,5-a]pyrimidin-5-yl)-8-azabicyclo[3.2.1]octan-8-yl)-2-hydroxyethanone]
IC50 ([1]; Homo sapiens, PC-3, PC3 cells): 1000 to 10000 nM | IC50 ([2]; Homo sapiens, PC-3, PC3 cells): > 10000 nM

CC(=O)c1c([C@@H]2C[C@H]3CC[C@@H](C2)N3C(=O)c2nnc[nH]2)nc2c(-c3cncc(CO)c3)cnn2c1N [Compound 1.1.184, 1-(5-((1R,3s,5S)-8-(4H-1,2,4-triazole-3-carbonyl)-8-azabicyclo[3.2.1]octan-3-yl)-7-amino-3-(5-(hydroxymethyl)pyridin-3-yl)pyrazolo[1,5-a]pyrimidin-6-yl)ethanone]
IC50 [1, 3]: 100 to 1000 nM | IC50 [2, 3]: 100 to 1000 nM

CS(=O)(=O)c1c([C@@H]2C[C@H]3CC[C@@H](C2)N3C(=O)c2nnc[nH]2)nc2c(-c3ccc(-c4nc5c(s4)CCC5)nc3)cnn2c1N [Compound 3.193, ((1R,3s,5)S-3-(7-amino-3-(6-(5,6-dihydro-4H-cyclopenta[d]thiazol-2-yl)pyridin-3-yl)-6-(methylsulfonyl)pyrazolo[1,5-a]pyrimidin-5-yl)-8-azabicyclo[3.2.1]octan-8-yl)(4H-1,2,4-triazol-3-yl)methanone]
IC50 [1, 4]: 100 to 1000 nM | IC50 [2, 4]: 100 to 1000 nM

Nc1nnc(C(=O)N2C3CCC2CC(c2nc4c(-c5ccc(-c6ccccc6)nc5)cnn4c(N)c2C2CC2)C3)[nH]1 [Compound 8.104, (5-amino-4H-1,2,4-triazol-3-yl)((1R,3s,5S)-3-(7-amino-6-cyclopropyl-3-(6-phenylpyridin-3-yl)pyrazolo[1,5-a]pyrimidin-5-yl)-8-azabicyclo[3.2.1]octan-8-yl)methanone]
IC50 ([1]; Homo sapiens, PC-3, PC3 cells): 1 to 100 nM | IC50 ([2]; Homo sapiens, PC-3, PC3 cells): 1 to 100 nM

CC(=O)c1c([C@@H]2C[C@H]3CC[C@@H](C2)N3C(=O)c2cnccc2O)nc2c(-c3ccc(-c4ccccc4)nc3)cnn2c1N [Compound 1.1.51, 1-(7-amino-5-((1R,3s,5S)-8-(4-hydroxynicotinoyl)-8-azabicyclo[3.2.1]octan-3-yl)-3-(6-phenylpyridin-3-yl)pyrazolo[1,5-a]pyrimidin-6-yl)ethanone]
IC50 [1, 3]: 100 to 1000 nM | IC50 [2, 3]: 100 to 1000 nM

CC(=O)Nc1ccc(-c2cnn3c(N)c(C(C)=O)c([C@@H]4C[C@H]5CC[C@@H](C4)N5C(=O)c4ncn[nH]4)nc23)cn1 [Compound 8.76, N-(5-(5-((1R,3s,5S)-8-(1H-1,2,4-triazole-5-carbonyl)-8-azabicyclo[3.2.1]octan-3-yl)-6-acetyl-7-aminopyrazolo[1,5-a]pyrimidin-3-yl)pyridin-2-yl)acetamide]
IC50 ([1]; Homo sapiens, PC-3, PC3 cells): 1 to 100 nM | IC50 ([2]; Homo sapiens, PC-3, PC3 cells): 1 to 100 nM

Cc1cnc(-c2ccc(-c3cnn4c(N)c(S(C)(=O)=O)c([C@H]5CC6CC[C@H](C5)N6C(=O)c5cn[nH]n5)nc34)cn2)s1 [Compound 3.181, ((1R,3s,5S)-3-(7-amino-6-(methylsulfonyl)-3-(6-(5-methylthiazol-2-yl)pyridin-3-yl)pyrazolo[1,5-a]pyrimidin-5-yl)-8-azabicyclo[3.2.1]octan-8-yl)(2H-1,2,3-triazol-4-yl)methanone]
IC50 [1, 4]: 1 to 100 nM | IC50 [2, 4]: 100 to 1000 nM

CNC(=O)N1[C@@H]2CC[C@H]1C[C@H](c1nc3c(-c4ccc(-c5ccccc5)nc4)cnn3c(N)c1S(C)(=O)=O)C2 [Compound 3.30, (1R,3s,5S)-3-(7-amino-6-(methylsulfonyl)-3-(6-phenylpyridin-3-yl)pyrazolo[1,5-a]pyrimidin-5-yl)-N-methyl-8-azabicyclo[3.2.1]octane-8-carboxamide]
IC50 [1, 4]: 100 to 1000 nM | IC50 [2, 4]: 100 to 1000 nM

CC(=O)c1c([C@@H]2C[C@H]3CC[C@@H](C2)N3C(=O)c2nnc[nH]2)nc2c(-c3ccc(-c4ncn(C)n4)nc3)cnn2c1N [Compound 1.1.88, 1-(5-((1R,3s,5S)-8-(4H-1,2,4-triazole-3-carbonyl)-8-azabicyclo[3.2.1]octan-3-yl)-7-amino-3-(6-(1-methyl-1H-1,2,4-triazol-3-yl)pyridin-3-yl)pyrazolo[1,5-a]pyrimidin-6-yl)ethanone]
IC50 [1, 3]: 1 to 100 nM | IC50 [2, 3]: 1 to 100 nM

CS(=O)(=O)c1c([C@@H]2C[C@H]3CC[C@@H](C2)N3C(=N)NO)nc2c(-c3ccc(-c4ccccc4)nc3)cnn2c1N [Compound 8.72, (1R,3s,5S)-3-(7-amino-6-(methylsulfonyl)-3-(6-phenylpyridin-3-yl)pyrazolo[1,5-a]pyrimidin-5-yl)-N-hydroxy-8-azabicyclo[3.2.1]octane-8-carboximidamide]
IC50 ([1]; PC3 cells): 1000 to 10000 nM | IC50 ([2]; PC3 cells): 1000 to 10000 nM
